Our source for the TGI and GI50 values is PubChem BioAssay (NCI).

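Growth conditions: 96-well plates. Treatment: test compound, 48 hours, 5 concentrations. Analysis: linear interpolation between bracketing concentrations; unreached endpoints set to highest concentration. GI50 = concentration required for 50% inhibition of growth. TGI is the concentration that stops growth completely.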

Holding throughout (assay): inhibition of tumour cell growth, NCI panel, 48 h
Test [1] concerns NCI-H226 lung.
In test [2] the test system is HS 578T breast.
In test [3] the test system is T-47D breast.
Test [4] concerns SF-268 CNS.
In test [5] the test system is DU-145 prostate.
The test system of test [6] is MCF7 breast.
Test [7] deals with SW-620 colon.
Test [8] has as its system OVCAR-3 ovarian.
Test [9] relates to SK-OV-3 ovarian.
The test system of test [10] is NCI-H460 lung.

Take `[N-]=[N+]=NCc1cccc(Nc2cc(=O)[nH]c(=O)[nH]2)c1`: the TGI in [1], in test [2], in test [3], in [4], in [5] and in test [6] was > 100 µM each time. Further, the TGI in [7], in [8] and in test [9] was > 100 µM in each case.

As for `O=[N+]([O-])c1ccc(N=Nc2c(O)c(S(=O)(=O)O)cc3cc(S(=O)(=O)O)ccc23)cc1`, the TGI in test [1], in test [2], in [3], in [10], in test [5] and in [6] was > 100 µM throughout. Further, the TGI in test [7], in test [8] and in test [9] was > 100 µM throughout.

For `Cc1[nH]c2ccccc2c1C=Nc1ccc(N=Cc2c(C)[nH]c3ccccc23)cc1`, the TGI in test [1], in test [2], in test [3], in [4], in [10] and in test [5] was > 100 µM throughout. Moreover, the TGI in test [6] was 30.1 µM; in test [7], 70.2 µM; in test [8], > 100 µM; in test [9] it was > 100 µM.

Turning to `NC(=O)c1ccc2c(c1)S(=O)(=O)c1ccccc1C2=O`, the TGI in test [1], in test [2], in test [3], in [4], in [10] and in test [5] was > 100 µM in each case. For the same compound, the TGI in [6], in test [7], in test [8] and in test [9] was > 100 µM in each case.

Turning to `CCCCCCCCCCCCCCCCCCNc1ccn(C2OC(COP(=O)(O)OCC3OC(n4cc(C)c(=O)[nH]c4=O)CC3N=[N+]=[N-])C(O)C2O)c(=O)n1` (stereo not drawn), the TGI in [1] was 43.7 µM; in test [2] it was 49.8 µM; in [3], > 100 µM; in [4], 43.6 µM; in test [10] it was 36.6 µM; in test [5] it was > 100 µM. The TGI is > 100 µM in [6], 58.8 µM in test [7], > 100 µM in test [8] and 40.3 µM in test [9].

For `C(=C\c1ccccc1)/C=N/c1nc2cc3sc(/N=C/C=C/c4ccccc4)nc3cc2s1`, the TGI in test [2], in test [3], in [4], in test [10], in test [5] and in [6] was > 100 µM each time. Moreover, the TGI in test [7], in test [8] and in test [9] was > 100 µM throughout.

As to `COC(=O)n1c(=O)n(-c2ccccc2)c(=O)n1C(=O)OC`, the TGI in [1], in test [2], in test [3], in test [4], in [10] and in test [5] was > 100 µM in each case. Further, the TGI in [6], in [7], in test [8] and in test [9] was > 100 µM each time.

With `CCCCc1ccc(Nc2ncc3[nH]cnc3n2)cc1`, the TGI was 45.4 µM in test [1]; 33.9 µM in [2]; 61 µM in test [3]; 50.1 µM in [4]; 30.6 µM in test [5]; > 100 µM in test [6]. In addition, the figures for the TGI in test [7], in test [8] and in test [9] were 42.6 µM, 28.9 µM and 38.1 µM, respectively.

Consider `COC(=O)/C=C(/C(=O)OC)c1c(C)c(C)c2c(C)cc(C)cc(C)c1-2`, for which the TGI was 58.9 µM in test [1]; 62.2 µM in test [2]; > 100 µM in test [3]; > 100 µM in test [4]; > 100 µM in test [10]; > 100 µM in [5]. Besides, the TGI in test [6] was > 100 µM; in test [7], > 100 µM; in test [8], > 100 µM; in test [9], 76.8 µM.

As for `O=S1(=O)c2ccccc2C(=NO)c2ccccc21`, the TGI in test [1], in test [2], in test [3], in [4], in [10] and in [5] was > 100 µM each time. Moreover, the TGI in [6], in test [7], in test [8] and in test [9] was > 100 µM throughout.

With `COc1cccc(N(CN2CC=CC2=O)C(C)=O)c1`, the TGI in test [1], in test [2], in test [3], in test [4], in [10] and in test [5] was > 100 µM in each case. Further, the TGI in test [6], in test [7], in test [8] and in [9] was > 100 µM throughout.

In the case of `O=c1[nH]c(=O)n(Cc2ccccc2CO)cc1Sc1ccccc1`, the TGI was 43.8 µM in test [1]; 60.6 µM in test [2]; > 100 µM in test [3]; 70.6 µM in [4]; > 100 µM in test [10]; > 100 µM in test [5]. In addition, the TGI is > 100 µM in test [6], > 100 µM in test [7], 42.2 µM in [8] and > 100 µM in [9].

Consider `NC(=S)Nc1[nH]c(=S)nc2c1SC1=N/C(=C\c3ccco3)C(=O)N12`, for which the TGI in test [1], in test [2], in test [3], in test [4], in [10] and in [5] was > 100 µM in each case. For the same compound, the TGI in [6], in test [7], in [8] and in [9] was > 100 µM in each case.

With `COc1cc(CC2c3cc(OC)c(OC)cc3CCN2C)c(Oc2cc3c(cc2OC)-c2c(O)c(OC)cc4c2C(C3)N(C)CC4)cc1OC` (stereo not drawn), the TGI was 66.2 µM in [1]; 45.2 µM in test [2]; 55 µM in [3]; 46 µM in test [4]; 44.8 µM in [10]; > 100 µM in test [5]. The TGI in test [6] was 29.1 µM; in [7], > 100 µM; in [8], > 100 µM; in test [9], > 100 µM.

As to `Fc1ccc(N=NN2CCCC2)cc1`, the TGI in [1], in test [2], in [3], in test [4], in [10] and in [5] was > 100 µM throughout. Moreover, the TGI in test [6], in test [7], in test [8] and in [9] was > 100 µM throughout.

In the case of `O=c1c2cc(I)ccc2nc(Sc2ncccc2[N+](=O)[O-])n1Cc1ccccc1`, the TGI in [1] was > 100 µM; in [2], 92.3 µM; in test [3] it was > 100 µM; in [4], > 100 µM; in test [10] it was > 100 µM; in test [5], > 100 µM. Besides, the TGI in test [6], in test [7], in [8] and in test [9] was > 100 µM each time.

Regarding `Cc1sc(/N=C/c2c[nH]c3ccccc23)c(C#N)c1C`, the TGI in [1], in test [2], in [3], in [4], in test [10] and in test [5] was > 100 µM throughout. In addition, the TGI in [6] was > 100 µM; in test [7], > 100 µM; in test [8], 66.1 µM; in test [9], > 100 µM.

`C=CCNC(=O)NC1=CSC2=NC(=O)C3(NN12)c1ccccc1-c1ccccc13`: the TGI in [1], in [2], in test [3], in [4], in [10] and in [5] was > 10 µM each time. Further, the TGI in [6], in [7] and in test [9] was > 10 µM throughout.

Take `O=C(c1ccccc1)c1ccc2nc(-c3c(Cl)c(Cl)c(Cl)c(Cl)c3C(=O)N/N=C/c3ccccc3)[nH]c2c1`: the TGI was 79.8 µM in test [1]; > 100 µM in test [2]; 74.3 µM in test [3]; > 100 µM in test [4]; > 100 µM in [5]; 41.9 µM in test [6]. For the same compound, the TGI is > 100 µM in [7], 54.3 µM in test [8] and > 100 µM in test [9].

Consider `COc1ccc(N=N/C(=N/NC(=O)c2ccccc2)c2ccc(N(CCC#N)CCC#N)cc2C)cc1`, for which the TGI in [1] is > 100 µM; in test [2], 75.2 µM; in test [3] it was > 100 µM; in test [4], > 100 µM; in test [10], > 100 µM; in test [5] it was > 100 µM. The TGI in test [6], in test [8] and in test [9] was > 100 µM throughout.

Regarding `O=C(CCCCCCCCC(=O)N1C(=O)CC(=O)N(c2cccc(Cl)c2)C1=S)N1C(=O)CC(=O)N(c2cccc(Cl)c2)C1=S`, the TGI in test [2], in test [3], in test [4], in test [10], in test [5] and in test [6] was > 100 µM in each case. Also, the TGI was 65 µM in [8] and > 100 µM in [9].

For the compound `O=C(NC1CCN(Cc2ccccc2)CC1)c1cc2nc(-c3ccc(Cl)s3)cc(C(F)(F)F)n2n1`, the GI50 in [1] was > 100 µM; in [2], 10.9 µM; in [3], 41.3 µM; in test [4] it was > 100 µM; in [5], > 100 µM; in test [6], 8.98 µM. Also, the figures for the GI50 in [8] and in [9] were 42.4 µM and 61.6 µM, respectively. The TGI in test [1], in test [2], in test [3], in test [4], in [5] and in test [6] was > 100 µM in each case. Further, the TGI in test [8] and in [9] was > 100 µM throughout.

Regarding `CCOC(=O)CNC(=O)C(C)NC(=O)C(NC(=O)CC(c1ncc[nH]1)c1ncc[nH]1)C(C)CC` (stereo not drawn), the TGI in [2], in [3], in [4], in test [10], in test [5] and in test [6] was > 100 µM in each case. Moreover, the TGI in test [7], in test [8] and in test [9] was > 100 µM throughout.

For the compound `COP(=O)(OC)C(Cc1c[nH]c2ccccc12)NC(=O)OCc1ccccc1` (stereo not drawn), the TGI in [1], in [2], in [3], in [10], in test [5] and in [6] was > 100 µM in each case. Further, the TGI in test [7], in test [8] and in test [9] was > 100 µM in each case.

For `O=C1/C(=C/c2ccccc2[N+](=O)[O-])N=C(c2ccccc2)N1C1Nc2cc3c(cc2S1)NC(N1C(=O)/C(=C/c2ccccc2[N+](=O)[O-])N=C1c1ccccc1)S3` (stereo not drawn), the TGI in test [1], in test [2], in test [3], in test [4], in [10] and in test [5] was > 100 µM throughout. Further, the TGI in test [6], in test [7] and in test [8] was > 100 µM each time.

For the compound `C=C(CC[C@@H](C(=O)O)[C@H]1[C@H](O)C[C@@]2(C)C3=CC[C@@H](C(=C)C)[C@](C)(CCC(=O)O)C3=CC[C@]12C)C(C)C`, the TGI turned out to be 36.3 µM in [1]; 42.2 µM in [2]; 50.7 µM in test [3]; 34.7 µM in test [10]; 38.9 µM in [5]; 32.6 µM in test [6]. The TGI in [7] is 55.5 µM; in test [8] it was 33.2 µM; in test [9], 31.9 µM.
